Measured values from US10792277B2, “Methods of treatment of fibrosis and cancers” (GENFIT, priority 2013, dated 2020).

Columns and labels:
Experiment in all cases: Gene expression (quantitative RT-PCR) in TGFβ1-activated hHSC
Type in all cases: cell-based, human
[1] = system: HGFR gene expression in hHSC; details: 10 μM; TGFβ1 1 ng/mL, 24 hours, serum free
Experimental: (§1) The human primary hepatic stellate cells (hHSC) (ScienCell) were cultured under standard conditions, as described above. For experiments to determine gene expression patterns, hHSC were plated at a density of 1.4×10^5 cells/well into 12-well plates and were cultured overnight. Next day, culture medium was removed, cells were washed with PBS (Invitrogen cat #14190) and serum-free and SteCGS-free medium was added for an additional 16 hours. Cells were treated with compounds in addition to TGFβ1 (1 ng/mL) in a serum-free and SteCGS-free medium for 24 hours.
(§2) Total RNA was isolated using RNeasy® Mini Kit (Qiagen) following manufacturer's instructions. 250 ng of total RNA were reverse transcribed in cDNA using M-MLV RT (Moloney Murine Leukemia Virus Reverse Transcriptase) (Invitrogen cat #28025) in presence of RT buffer 1× (Invitrogen), 1 mM DTT (Invitrogen), 0.18 mM dNTPs (Promega), 200 ng pdN6 (Amersham) and 30 U of RNase inhibitor (Promega).
(§3) Quantitative PCR was then carried out using the MyiQ Single-Color Real-Time PCR Detection or the iCycler iQ Multiplex Real-Time PCR Detection System (both systems from Biorad). Briefly, PCR reactions were performed in 96 Well plates on 5 μL of 5× diluted reverse transcription mix using the iQ SYBR Green Supermix kit. The experimental conditions were: 25 μL of volume reaction, 3 mM of MgCl2, and 0.5 μL each of reverse and forward primers (10 pMol).
(§4) Expression levels were normalized using the expression of 36B4 gene as reference.
(§5) For each gene, the standard curves were drawn by selecting the best points (at least three points) in order to have PCR reaction efficiency close to 100% and a correlation coefficient close to 1. Expression levels were determined using the standard curve equation for both the housekeeping gene and the target gene (taking into account the specific PCR efficiency of each target gene).
(§6) The induction factor vs TGFβ1 was determined as follow: […]
(§7) Thus, lower the induction factor is more the compound of interest inhibits the TGFβ1 activation of hHSC. Experimental results were expressed as mean±standard deviation (SD) of the induction factor.
(§8) The expression of both profibrotic and cancer associated genes was induced in the primary human hepatic stellate cells (hHSCs) by the treatment with the TGFβ1 (1 ng/mL) in serum free conditions. […] The expression of the genes of interest in both treated and untreated hHSCs was determined by the quantitative RT-PCR technique, following 24 hours of exposure to the TGFβ1.
(§9) Experimental results were expressed as Emax values that indicate the maximum inhibition, which was obtained at the concentration of 10 μmole/L. Statistical analyses were performed using an one-way ANOVA followed by Bonferroni post-hoc tests, using Sigma Plot 11.0 software.

[2] = system: VEGFR1 gene expression in hHSC; details: 10 μM; TGFβ1 1 ng/mL, 24 hours, serum free
Experimental: as §1, §2, §3, §4, §5, §6, §7, §8, §9

[3] = system: Col4α1 gene expression in hHSC; details: 10 μM; TGFβ1 1 ng/mL, 24 hours, serum free
Experimental: as §1, §2, §3, §4, §5, §6, §7, §8, §9

[4] = system: αSMA gene expression in hHSC; details: 10 μM; TGFβ1 1 ng/mL, 24 hours, serum free
Experimental: as §1, §2, §3, §4, §5, §6, §7, §8, §9

[5] = system: TGFβR1 gene expression in hHSC; details: 10 μM; TGFβ1 1 ng/mL, 24 hours, serum free
Experimental: (§10) The human primary hepatic stellate cells (hHSC) (ScienCell) were cultured under standard conditions, as described above. For experiments to determine gene expression patterns, hHSC were plated at a density of 1.4×10^5 cells/well into 12-well plates and were cultured overnight. […] Cells were treated with compounds in addition to TGFβ1 (1 ng/mL) in a serum-free and SteCGS-free medium for 24 hours.
(§11) Total RNA was isolated using RNeasy® Mini Kit (Qiagen) following manufacturer's instructions.
as §3, §4
(§12) Expression levels were determined using the standard curve equation for both the housekeeping gene and the target gene (taking into account the specific PCR efficiency of each target gene).
as §6

[6] = system: FGFR1 gene expression in hHSC; details: 3 μM; TGFβ1 1 ng/mL, 24 hours, serum free
Experimental: as §10, §11, §3, §4, §12, §6

[7] = system: Col1α1 gene expression in hHSC; details: 3 μM; TGFβ1 1 ng/mL, 24 hours, serum free
Experimental: as §1
Total RNA was isolated using RNeasy® Mini Kit (Qiagen) following manufacturer's instructions. […]
Quantitative PCR was then carried out using the MyiQ Single-Color Real-Time PCR Detection or the iCycler iQ Multiplex Real-Time PCR Detection System (both systems from Biorad). […]
as §5, §6

CNC(=O)c1cc(Oc2ccc(NC(=O)Nc3ccc(Cl)c(C(F)(F)F)c3)cc2)ccn1 [Sorafenib]
Emax, reduction in HGFR gene expression vs hHSC treated with TGFβ1 alone [1]: −79% | Emax, reduction in VEGFR1 gene expression vs hHSC treated with TGFβ1 alone [2]: −95% | Emax, reduction in Col4α1 gene expression vs hHSC treated with TGFβ1 alone [3]: −93% | Emax, reduction in αSMA gene expression vs hHSC treated with TGFβ1 alone [4]: −95% | Emax, reduction in TGFβR1 gene expression vs hHSC treated with TGFβ1 alone [5]: −80% | Emax, reduction in FGFR1 gene expression vs hHSC treated with TGFβ1 alone [6]: −43% | Emax, reduction in Col1α1 gene expression vs hHSC treated with TGFβ1 alone [7]: −93%
